Measurements published in publication PMC4946969 (ACS chemical biology, 2016).

Assays:
[1] = target: T1, S. epidermidis AgrC-I (Staphylococcus epidermidis, UniProt Q5HMY3); format: cell-based; settings: for IC50: AgrC-I antagonism dose response, peptide alone, Group-I reporter strain, 24 h
[2] = target: T1, S. epidermidis AgrC-I; format: cell-based; settings: AgrC-I activation dose response in the presence of 50 nM S. epidermidis AIP-II
[3] = test system: S. epidermidis AgrC-II; test: AgrC-II modulation, Group-II GFP reporter strain AH3567; format: cell-based, Staphylococcus epidermidis
[4] = test system: S. epidermidis AgrC-III; test: AgrC-III modulation, Group-III GFP reporter strain AH3409; format: cell-based, Staphylococcus epidermidis; settings: initial single-concentration screen, 10 μM (Figures S-2, 2A)

Q: Which results are given for D-S-V-(C-A-S-DY-F) [AIP-I D-Y7]?
A: IC50 [1]: Inactive ^c; EC50 [2]: Inactive ^c

Q: “I-N-(C-D-F-L-L) [S. aureus AIP-III, reference compound]” was tested. Which IC50 [1] did it give?
A: Its IC50 is “Inactive ^c”.

Q: What about the EC50 [2] of the same substance?
A: The EC50 was “Inactive ^c”.

Q: For D-S-V-(C-S-S-Y-F) [A5S-2], which “AgrC-I dose response behaviour” value ([1]; two isolated AIP-I A5S products) is on record?
A: The value was “very weak inhibition at low concentrations yet activation at higher concentrations”.

Q: Which results are given for D-S-V-(C-DA-S-Y-F) [AIP-I D-A5]?
A: IC50 [1]: Inactive ^c; EC50 [2]: Inactive ^c

Q: For “Y-S-T-(C-D-F-I-M) [S. aureus AIP-I, reference compound]”, which IC50 [1] is on record?
A: The IC50 was “Inactive ^c”.

Q: What about the EC50 [2] of the same substance?
A: The EC50 was “Inactive ^c”.

Q: With D-S-V-(C-A-S-Y-A) [AIP-I F8A] as the substance, how does the IC50 [1] read?
A: Its IC50 is “Inactive ^c”.

Q: And the EC50 [2]?
A: Its EC50 is “Inactive ^c”.

Q: With D-S-V-(C-A-S-A-F) [AIP-I Y7A] as the substance, how does the IC50 [1] read?
A: The IC50 was “Inactive ^c”.

Q: What about the EC50 [2] of the same substance?
A: The EC50 was “Inactive ^c”.

Q: And the “AgrC-II (Group-II) inhibition, single concentration” value ([3]; initial single-concentration screen, 10 μM (Figures S-1, 2A))?
A: The value was ~ 50%.

Q: And the “AgrC-III (Group-III) inhibition, single concentration” value [4]?
A: The value was ~ 50%.

Q: With “I-N-(C-A-F-L-L) [S. aureus AIP-III D4A, reference compound]” as the substance, how does the IC50 [1] read?
A: The IC50 was “Inactive ^c”.

Q: What about the EC50 [2] of the same substance?
A: Its EC50 is “Inactive ^c”.

Q: What about the “Activity toward Group-II (AgrC-II) at lower concentration” value ([3]; 100 nM (lower-concentration screen 1 μM or 100 nM; Figure 2A)) of the same substance?
A: The value was “inhibiting exclusively Group-II”.

Q: What does the source list for D-S-V-(DC-A-S-Y-F) [AIP-I D-C4]?
A: IC50 [1]: Inactive ^c; EC50 [2]: Inactive ^c
